Laboratory results as given in US11382328B2, “Rapid drug discovery methods for pathogen inactivation” (priority 2019, dated 2022).

Test system: E. coli strain W3110
Test: Synergy assays: Biolog chemical sensitivity panels with Group IB metal, coefficient of drug interaction (CDI) from relative growth
Type: cell-based
Details: for CDI (coefficient of drug interaction), gold + biocide: Gold (μM); for CDI (coefficient of drug interaction), copper mixed with biocide: Copper (mM) section
[1] = Copper (mM), 1st of 3 copper concentrations (head line not shown), biocide concentration 4 of 4, E. coli
[2] = Copper (mM), 2nd of 3 copper concentrations (head line not shown), biocide concentration 3 of 4, E. coli
[3] = Copper (mM), 2nd of 3 copper concentrations (head line not shown), biocide concentration 4 of 4, E. coli
[4] = Copper (mM), 3rd of 3 copper concentrations (head line not shown), biocide concentration 4 of 4, E. coli
[5] = first of 3 gold concentrations, biocide concentration 4 of 4
[6] = second of 3 gold concentrations, biocide concentration 4 of 4
[7] = third of 3 gold concentrations, biocide concentration 4 of 4
[8] = Silver 0.5 μM, biocide concentration 1 of 4
[9] = Silver 0.5 μM, biocide concentration 2 of 4
[10] = Silver 0.5 μM, biocide concentration 4 of 4
[11] = Silver 1.0 μM, biocide concentration 1 of 4
[12] = Silver 1.0 μM, biocide concentration 2 of 4
[13] = Silver 1.0 μM, biocide concentration 3 of 4
[14] = Silver 1.0 μM, biocide concentration 4 of 4
[15] = Silver 5.0 μM, biocide concentration 1 of 4
[16] = Silver 5.0 μM, biocide concentration 2 of 4
[17] = Silver 5.0 μM, biocide concentration 3 of 4
[18] = Silver 5.0 μM, biocide concentration 4 of 4
[19] = 1st of 3 copper concentrations (value not shown), 1st of four biocide concentrations
[20] = 1st of 3 copper concentrations (value not shown), 3rd of four biocide concentrations
[21] = 1st of 3 copper concentrations (value not shown), 4th of four biocide concentrations
[22] = 2nd of 3 copper concentrations (value not shown), 1st of four biocide concentrations
[23] = 2nd of 3 copper concentrations (value not shown), 2nd of four biocide concentrations
[24] = 2nd of 3 copper concentrations (value not shown), 3rd of four biocide concentrations
[25] = 2nd of 3 copper concentrations (value not shown), 4th of four biocide concentrations
[26] = 3rd of 3 copper concentrations (value not shown), 1st of four biocide concentrations
[27] = 3rd of 3 copper concentrations (value not shown), 2nd of four biocide concentrations
[28] = 3rd of 3 copper concentrations (value not shown), 3rd of four biocide concentrations
[29] = 3rd of 3 copper concentrations (value not shown), 4th of four biocide concentrations
[30] = Gold section of Table 5, first of three gold concentrations (μM, value not given), biocide concentration 2 of 4
[31] = Gold section of Table 5, first of three gold concentrations (μM, value not given), biocide concentration 3 of 4
[32] = Gold section of Table 5, first of three gold concentrations (μM, value not given), biocide concentration 4 of 4
[33] = Gold section of Table 5, second of three gold concentrations (μM, value not given), biocide concentration 2 of 4
[34] = Gold section of Table 5, second of three gold concentrations (μM, value not given), biocide concentration 3 of 4
[35] = Gold section of Table 5, second of three gold concentrations (μM, value not given), biocide concentration 4 of 4
[36] = Gold section of Table 5, third of three gold concentrations (μM, value not given), biocide concentration 2 of 4
[37] = Gold section of Table 5, third of three gold concentrations (μM, value not given), biocide concentration 3 of 4
[38] = Gold section of Table 5, third of three gold concentrations (μM, value not given), biocide concentration 4 of 4
[39] = Silver 0.5 μM, biocide concentration 3 of 4

With `CC1(C)S[C@@H]2[C@H](NC(=O)[C@H](NC(=O)N3CCNC3=O)c3ccccc3)C(=O)N2[C@H]1C(=O)O` [aziocillin] the “CDI (coefficient of drug interaction)” value (Copper (mM), 1st of 3 copper concentrations (head line not shown), biocide concentration 1 of 4, E. coli) was 0.97, the “CDI (coefficient of drug interaction)” value (Copper (mM), 1st of 3 copper concentrations (head line not shown), biocide concentration 2 of 4, E. coli) was 1.05 and the “CDI (coefficient of drug interaction)” value (Copper (mM), 1st of 3 copper concentrations (head line not shown), biocide concentration 3 of 4, E. coli) was 1.08. For the same compound, the “CDI (coefficient of drug interaction)” value [1] was “Tox”, the “CDI (coefficient of drug interaction)” value (Copper (mM), 2nd of 3 copper concentrations (head line not shown), biocide concentration 1 of 4, E. coli) was 0.94 and the “CDI (coefficient of drug interaction)” value (Copper (mM), 2nd of 3 copper concentrations (head line not shown), biocide concentration 2 of 4, E. coli) was 0.90. For the same compound, the “CDI (coefficient of drug interaction)” value [2] was 0.97, the “CDI (coefficient of drug interaction)” value [3] was “Tox” and the “CDI (coefficient of drug interaction)” value (Copper (mM), 3rd of 3 copper concentrations (head line not shown), biocide concentration 1 of 4, E. coli) was 0.78. For the same compound, the “CDI (coefficient of drug interaction)” value (Copper (mM), 3rd of 3 copper concentrations (head line not shown), biocide concentration 2 of 4, E. coli) was 0.70, the “CDI (coefficient of drug interaction)” value (Copper (mM), 3rd of 3 copper concentrations (head line not shown), biocide concentration 3 of 4, E. coli) was 0.61 and the “CDI (coefficient of drug interaction)” value [4] was “Tox”. For the same compound, the “CDI (coefficient of drug interaction), gold + biocide” value (from here on “CDI … gold + biocide”) (first of 3 gold concentrations, biocide concentration 1 of 4) was 0.92, the “CDI … gold + biocide” value (first of 3 gold concentrations, biocide concentration 2 of 4) was 1.01 and the “CDI … gold + biocide” value (first of 3 gold concentrations, biocide concentration 3 of 4) was 0.94. For the same compound, the “CDI … gold + biocide” value [5] was 0.64, the “CDI … gold + biocide” value (second of 3 gold concentrations, biocide concentration 1 of 4) was 1.05 and the “CDI … gold + biocide” value (second of 3 gold concentrations, biocide concentration 2 of 4) was 1.09. For the same compound, the “CDI … gold + biocide” value (second of 3 gold concentrations, biocide concentration 3 of 4) was 0.89, the “CDI … gold + biocide” value [6] was 0.64 and the “CDI … gold + biocide” value (third of 3 gold concentrations, biocide concentration 1 of 4) was 0.94. The “CDI … gold + biocide” value (third of 3 gold concentrations, biocide concentration 2 of 4) was 0.93, the “CDI … gold + biocide” value (third of 3 gold concentrations, biocide concentration 3 of 4) was 0.93 and the “CDI … gold + biocide” value [7] was 0.47. The CDI [8] was 0.90, the CDI [9] was 1.07 and the CDI [10] was “Tox”. The CDI [11] was 0.97, the CDI [12] was 0.90 and the CDI [13] was 1.14. For the same compound, the CDI [14] was “Tox”, the CDI [15] was 1.03 and the CDI [16] was 1.08. The CDI [17] was 0.70 and the CDI [18] was “Tox”.
In the case of `CN[C@H]1C[C@@H](N)[C@H](O)[C@@H](O[C@@H]2O[C@H](CO)[C@H](O)[C@@H]3OC4(O[C@H]23)O[C@H]([C@@H](N)CO)[C@H](O)[C@H](O)[C@H]4O)[C@@H]1O` (stereo partly shown) [hygromycin B], the “CDI (coefficient of drug interaction), copper mixed with biocide” value (shortened to “CDI … with biocide”) [19] is reported as 1.19, the “CDI … with biocide” value [20] is reported as 0.89 and the “CDI … with biocide” value [21] is reported as 0.61. The “CDI … with biocide” value [22] was 0.80, the “CDI … with biocide” value [23] was 0.81 and the “CDI … with biocide” value [24] was 1.02. The “CDI … with biocide” value [25] was “Tox”, the “CDI … with biocide” value [26] was 0.91 and the “CDI … with biocide” value [27] was 0.79. For the same compound, the “CDI … with biocide” value [28] was 0.77, the “CDI … with biocide” value [29] was 0.94 and the “CDI (coefficient of drug interaction)” value [30] was 0.82. The “CDI (coefficient of drug interaction)” value [31] was “Tox”, the “CDI (coefficient of drug interaction)” value [32] was “Tox” and the “CDI (coefficient of drug interaction)” value (Gold section of Table 5, second of three gold concentrations (μM, value not given), biocide concentration 1 of 4) was 0.96. The “CDI (coefficient of drug interaction)” value [33] was 1.13, the “CDI (coefficient of drug interaction)” value [34] was “Tox” and the “CDI (coefficient of drug interaction)” value [35] was “Tox”. For the same compound, the “CDI (coefficient of drug interaction)” value (Gold section of Table 5, third of three gold concentrations (μM, value not given), biocide concentration 1 of 4) was 0.97, the “CDI (coefficient of drug interaction)” value [36] was 1.27 and the “CDI (coefficient of drug interaction)” value [37] was “Tox”. The “CDI (coefficient of drug interaction)” value [38] was “Tox”, the CDI [8] was 1.26 and the CDI [9] was 2.06. The CDI [39] was “Tox”, the CDI [10] was “Tox” and the CDI [11] was 0.63. For the same compound, the CDI [12] was 1.47, the CDI [13] was “Tox” and the CDI [14] was “Tox”. For the same compound, the CDI [15] was 0.03, the CDI [16] was 0.37 and the CDI [17] was “Tox”. The CDI [18] was “Tox”.
For `O=C1C=C2C(=CCOC2O)O1` (stereo not shown) [patulin], the “CDI … with biocide” value [19] was “Tox”, the “CDI … with biocide” value (1st of 3 copper concentrations (value not shown), 2nd of four biocide concentrations) was “Tox” and the “CDI … with biocide” value [20] was “Tox”. For the same compound, the “CDI … with biocide” value [21] was “Tox”, the “CDI … with biocide” value [22] was “Tox” and the “CDI … with biocide” value [23] was “Tox”. The “CDI … with biocide” value [24] was “Tox”, the “CDI … with biocide” value [25] was “Tox” and the “CDI … with biocide” value [26] was “Tox”. The “CDI … with biocide” value [27] was “Tox”, the “CDI … with biocide” value [28] was “Tox” and the “CDI … with biocide” value [29] was “Tox”. The “CDI (coefficient of drug interaction)” value [30] was “Tox”, the “CDI (coefficient of drug interaction)” value [31] was “Tox” and the “CDI (coefficient of drug interaction)” value [32] was “Tox”. The “CDI (coefficient of drug interaction)” value [33] was “Tox”, the “CDI (coefficient of drug interaction)” value [34] was “Tox” and the “CDI (coefficient of drug interaction)” value [35] was “Tox”. The “CDI (coefficient of drug interaction)” value [36] was “Tox”, the “CDI (coefficient of drug interaction)” value [37] was “Tox” and the “CDI (coefficient of drug interaction)” value [38] was “Tox”. For the same compound, the “CDI (coefficient of drug interaction), silver + biocide” value (“CDI … silver + biocide” below) (Silver 0.5 μM, 2nd of four biocide concentrations, E. coli) was “Tox”, the “CDI … silver + biocide” value (Silver 0.5 μM, 3rd of four biocide concentrations, E. coli) was “Tox” and the “CDI … silver + biocide” value (Silver 0.5 μM, 4th of four biocide concentrations, E. coli) was “Tox”. The “CDI … silver + biocide” value (Silver 1.0 μM, 2nd of four biocide concentrations, E. coli) was “Tox”, the “CDI … silver + biocide” value (Silver 1.0 μM, 3rd of four biocide concentrations, E. coli) was “Tox” and the “CDI … silver + biocide” value (Silver 1.0 μM, 4th of four biocide concentrations, E. coli) was “Tox”. For the same compound, the “CDI … silver + biocide” value (Silver 5.0 μM, 2nd of four biocide concentrations, E. coli) was “Tox”, the “CDI … silver + biocide” value (Silver 5.0 μM, 3rd of four biocide concentrations, E. coli) was “Tox” and the “CDI … silver + biocide” value (Silver 5.0 μM, 4th of four biocide concentrations, E. coli) was “Tox”.
For `N#CC(C#N)=NNc1cccc(Cl)c1` [CCCP, Carbonyl cyanide m-chlorophenylhydrazone], the “CDI (coefficient of drug interaction)” value [1] was “Tox”, the “CDI (coefficient of drug interaction)” value [3] was “Tox” and the “CDI (coefficient of drug interaction)” value [4] was “Tox”. For the same compound, the CDI [10] was “Tox”, the CDI [14] was “Tox” and the CDI [18] was “Tox”.
In the case of `Cc1onc(-c2ccccc2Cl)c1C(=O)N[C@@H]1C(=O)N2[C@@H]1SC(C)(C)[C@@H]2C(=O)O` [cloxacillin], the “CDI (coefficient of drug interaction)” value [1] is reported as “Tox”, the “CDI (coefficient of drug interaction)” value [2] is reported as “Tox” and the “CDI (coefficient of drug interaction)” value [3] is reported as “Tox”. For the same compound, the “CDI (coefficient of drug interaction)” value [4] was “Tox”, the “CDI … gold + biocide” value [5] was “Tox” and the “CDI … gold + biocide” value [6] was “Tox”. For the same compound, the “CDI … gold + biocide” value [7] was “Tox”, the CDI [39] was “Tox” and the CDI [10] was “Tox”. The CDI [13] was “Tox”, the CDI [14] was “Tox” and the CDI [17] was “Tox”. The CDI [18] was “Tox”.
